These results are taken from patent publication US7288566B2, “N-hydroxyformamidine derivatives” (Taisho Pharmaceutical Co., Ltd., priority 2002, dated 2007).

This assay deals with Human Kidney Microsome-derived 20-HETE-producing Enzyme. The experiment in a line: Inhibitory effect against human kidney microsome-derived 20-HETE-producing enzyme. The assay is classed as biochemical. Conditions: human kidney microsomal fraction, tritium-arachidonic acid substrate, NADPH, 37° C. for 1.5 hours, pH 7.4; read-out: IC50 (50% inhibition of 20-HETE production). As to the method: Inhibitory Effect Against Human Kidney Microsome-derived 20-HETE-producing Enzyme
The compounds listed in the table above were tested for their inhibitory effect against 20-HETE production.
This test was performed as described in J. Pharmacol. Exp. Ther., vol. 268, p. 474, 1994.
A test drug solution adjusted with DMSO to 1 μM was added to 50 mM 3-morpholinopropanesulfonate (MOPS) buffer (pH 7.4) containing 5 mM magnesium chloride and 1 mM ethylenediaminetetraacetic acid disodium salt (EDTA). The resulting mixture was further supplemented with a human kidney microsomal fraction (Human Cell Culture Center, Anatomic Gift Foundation) as an enzyme source, [5,6,8,9,11,12,14,15]tritium-arachidonic acid as a substrate, and NADPH as a coenzyme, followed by reaction at 37° C. for 1.5 hours. After addition of formic acid to stop the reaction, the reaction mixture was supplemented with acetonitrile (final concentration: 50%). The level of 20-HETE production was measured by high performance liquid chromatography using an ODS column (Biosil C18, BioRad Laboratories) and a radioisotope detector. Assuming that the level of 20-HETE production in the absence of a test compound was set to 100%, the concentration required for the test compound to cause 50% inhibition of 20-HETE production was calculated (IC50 value).

The term IC50 denotes the concentration that gives 50% inhibition. For `CN(C)CC(C)(C)CCc1ccc(N/C=N/O)cc1` [Example 1, N-[4-(4-N,N-dimethylamino-3,3-dimethyl-butyl)phenyl]-N′-hydroxyformamidine], the half-maximal inhibitory concentration (IC50) turned out to be 10.5 nM.
